Experimental data taken from ChEMBL document CHEMBL1153073, “Semi-synthesis and anti-proliferative activity evaluation of novel analogues of Honokiol” (Bioorg Med Chem Lett, 2009).

Legend:
Format in all cases: functional, cell-based
[1] = test system: A549; assay: Antiproliferative activity against human A549 cells by MTT assay
[2] = Antiproliferative activity against human SPC-A1 cells by MTT assay; conditions: SPCA1
[3] = test system: K562; assay: Antiproliferative activity against human K562 cells by MTT assay
[4] = test system: A2780; assay: Antiproliferative activity against cisplatin-resistant human A2780 cells by MTT assay
[5] = test system: A2780; assay: Antiproliferative activity against cisplatin-sensitive human A2780 cells by MTT assay

IC50 [1]	IC50 [3]	IC50 [4]	IC50 [5]	Compound	IC50 [2]
39.5 µM	24.9 µM			C=CCc1ccc(O)c(-c2cc(/C=N/O)c(O)c(CC=C)c2)c1	53.1 µM
35 µM	21.1 µM	41.2 µM	30.5 µM	C=CCc1ccc(O)c(-c2ccc(O)c(CC=C)c2)c1 [HONOKIOL]	36.1 µM
91.6 µM	91.6 µM			C=CCc1cc(/C=C2\SC(=O)NC2=O)c(O)c(-c2ccc(O)c(CC=C)c2)c1	> 102 µM
87.4 µM	95.1 µM			C=CCc1cc(/C=C(\C#N)C(=O)OCC)c(O)c(-c2ccc(O)c(CC=C)c2)c1	92.5 µM
41.8 µM	11.9 µM	22.4 µM	16.7 µM	C=CCc1ccc(O)c(-c2cc(C=O)c(O)c(CC=C)c2)c1	25.5 µM
55 µM	36 µM			C=CCc1cc(C=O)c(O)c(-c2cc(C=O)c(O)c(CC=C)c2)c1	45.3 µM
> 104 µM	> 104 µM			C=CCc1cc(/C=N/Nc2ccccc2)c(O)c(-c2ccc(O)c(CC=C)c2)c1	> 104 µM
93.3 µM	90.7 µM			C=CCc1cc(/C=N/C2CCCCC2)c(O)c(-c2ccc(O)c(CC=C)c2)c1	88 µM
> 106 µM	> 106 µM			C=CCc1cc(/C=N/CCCCCC)c(O)c(-c2ccc(O)c(CC=C)c2)c1	> 106 µM
57.6 µM	47.6 µM			C=CCc1ccc(O)c(-c2cc(/C=C(\C#N)C(=O)OCC)c(O)c(CC=C)c2)c1	62 µM
39.8 µM	32.2 µM			C=CCc1cc(/C=N/c2ccccc2)c(O)c(-c2ccc(O)c(CC=C)c2)c1	40.7 µM
> 76.9 µM	> 76.9 µM			C=CCc1cc(/C=C2\SC(=O)NC2=O)c(O)c(-c2cc(/C=C3\SC(=O)NC3=O)c(O)c(CC=C)c2)c1	> 76.9 µM
41.1 µM	42.6 µM			C=CCc1cc(/C=N/CCN)c(O)c(-c2ccc(O)c(CC=C)c2)c1	50.3 µM
32.4 µM	21.5 µM	29.3 µM	20.2 µM	C=CCc1cc(/C=N\O)c(O)c(-c2cc(/C=N/O)c(O)c(CC=C)c2)c1	43.8 µM
65.6 µM	78.4 µM			C=CCc1cc(-c2ccc(O)c(CC=C)c2)c2oncc2c1	77.3 µM
41.8 µM	38.8 µM			C=CCc1cc(C=O)c(O)c(-c2ccc(O)c(CC=C)c2)c1	38.4 µM
40.4 µM	20.7 µM	37.2 µM	33 µM	C=CCc1cc(/C=N\O)c(O)c(-c2ccc(O)c(CC=C)c2)c1	45 µM
> 102 µM	81.4 µM			C=CCc1ccc(O)c(-c2cc(/C=C3\SC(=O)NC3=O)c(O)c(CC=C)c2)c1	> 102 µM
